From patent publication US8598342B2, “Methods and compounds for antimicrobial intervention” (President and Fellows of Harvard College, priority 2008, dated 2013)
Entries after “also recorded” stand apart in the source; their conditions may differ.

Key:
Assay type in all cases: cell-based, Staphylococcus aureus
S. aureus [1] = test: SAR of targocil analogs: MIC and mutation frequency
Source text: Based on the discovery of targocil as an inhibitor of WTA biosynthesis, further studies of the antibiotic were undertaken to elucidate the basis of its activity and to discover other antibiotics based on the structure of targocil. The goal for the initial SAR of targocil was to alter only the A ring to determine modifications that would improved potency as measured by MIC. We developed synthetic chemistry schemes to modify the targocil scaffold and, initially, nineteen different derivatives of targocil were made. […] Modifications to the D ring appear particularly promising. Finally, the optimized compounds from this second round of SAR could then be used to discover modifications to the amine group that could be tolerated.

S. aureus [2] = test: Two dimensional drug interaction analysis between tunicamycin and targocil; settings: normally inhibitory concentrations of targocil; 18 h at 30° C.
Experimental: (A) Targocil MIC data for a panel of Gram-positive strains, including MRSA clinical isolates B5271 and 5340A. Growth was monitored in triplicate after 12 h at 28° C. using optical density. (B) Two dimensional drug interaction analysis between tunicamycin and targocil grown for 18 h at 30° C. […] At higher concentrations, tunicamycin is toxic because it inhibits cell wall biosynthesis. […] Varying concentrations of drug were added to […] of S. aureus RN4220 after 5 h and cell count was monitored over time at 30° C. […] Cells were grown at 28° C. for 12 h and monitored for growth using optical density (OD600). Data were normalized to the DMSO controls for each strain. (E) Two classes of mutants were examined: phage resistant (m1 3) and phage sensitive (m4-5).
Having discovered targocil, the next challenge was to identify its target in S. aureus. We first used the natural product tunicamycin to verify that targocil requires the presence of a functional WTA pathway. Although toxic at high concentrations, tunicamycin is a selective TarO inhibitor that abolishes WTA expression at sublethal concentrations. (Hancock I C, Wiseman G, & Baddiley J (1976) Febs Letters 69:75-80) We predicted that tunicamycin should antagonize targocil by preventing flux into the WTA biosynthetic pathway. […]

S. aureus RN4220 = test: Phage infection (PFUs) of S. aureus grown with tunicamycin; settings: increasing tunicamycin
[3] = test system: WTA biosynthesis in S. aureus RN4220; test: PAGE analysis of WTAs isolated from S. aureus RN4220 grown with tunicamycin; settings: increasing but sub-lethal concentrations of tunicamycin

Compound	mutation frequency, relative to targocil (S. aureus [1]; in vitro)	potency as measured by MIC, relative to targocil (S. aureus [1]; two methoxy groups at R1 and R2 of ring A)	antagonism of targocil by tunicamycin (S. aureus [2])	phage infection (PFUs) (S. aureus RN4220)	WTA biosynthesis (PAGE of isolated WTAs) [3]
CCN(CC)c1nc2c(S(=O)(=O)c3ccccc3)nnn2c2cc(OC)c(OC)cc12 [Compound 4-22-7, N,N-Diethyl-7,8-dimethoxy-3-(phenylsulfonyl)-[1,2,3]triazolo[1,5-a]quinazolin-5-amine]	better	more potent	–	–	–
tunicamycin	–	–	complete protection; also recorded: antagonizes the lethal effect of targocil	dose-dependent decrease	dose-dependent decrease
